Structure (SMILES)	melting point [°C]
Cn1cc2c(=O)c(C(=O)c3ccccc3)cn(C)c2n1	272 to 274
Nc1ccc2cccc(N3CCNCC3)c2c1	184 to 186
COCCCn1c(CO)cc2c3c(c(-c4ccccc4Cl)cc21)C(=O)NC3=O	187 to 189
CS(=O)(=O)c1ccc(-c2nc(C(F)(F)F)nc(Cl)c2-c2ccc(S(=O)(=O)Cl)cc2)cc1	207 to 210
CC(=CC(=O)c1ccncc1)N(C)C	88 to 89
O=C1N=C2CCCCN2C12CCNCC2	220
CC(C)C[C@H](NS(=O)(=O)c1cccc2ccccc12)C(=O)N[C@H]1CCCOC1O (stereo partly drawn)	159 to 161
Cc1cnc(N)cc1C(c1cc(F)ccc1F)S(=O)(=O)c1ccc(Cl)cc1 (stereo not drawn)	188 to 189
O=c1c2ccccc2nc(-c2cc(-c3ccc(Cl)cc3)c(N3CCOCC3)s2)n1-c1ccccc1Cl	215 to 217
O=C(O)Cc1ccsc1Cc1nc2c(F)c(F)cc(F)c2s1	142 to 144
NNC(=O)c1ccc(-c2csc(N=C(N)N)n2)o1	279 to 280
COc1ccc(Cc2cc(C3CCN(C(=O)c4ccccc4)CC3)nc(N)n2)cc1	170 to 171
CCn1c2ccccc2c2oc(C#N)cc(=O)c21	184 to 185
CCCc1nc(NC)nc(N2CCOCC2)n1	131 to 133
O=C(NC1CCCCC1)NC1N=C(c2ccccc2F)c2ccccc2N(CC(=O)N2CC3CCC(CC3)C2)C1=O (racemic)	128 to 130
O=C(c1ccccc1)n1ccc2ccccc21	54 to 55

Structure (SMILES)	melting point [°C]
O=C(OCC(Cl)(Cl)Cl)c1ncn2c1CN=C(c1ccccc1)c1cc(Br)ccc1-2	113 to 116
CC(C)(C)OC(=O)Nc1ccc(-c2cccc(F)c2)cc1NC(=O)CC(=O)c1cccc(C#N)c1	148 to 150
C=C(C)c1cc(Br)c(Oc2nc(C)nc3c2nnn3C(CCC)CCC)c(OC)c1	110 to 115
Cc1cc2ncnn2nc1OCCOCCN1CCN(C(c2ccccc2)c2ccccc2)CC1	71 to 72
O=C(Cc1cc(Cl)cc(Cl)c1)NC1N=C(C2CC2)c2ccccc2N(CC(F)(F)F)C1=O (single isomer, unassigned; (+))	152 to 153
O=C1CCC(c2ccc3[nH]c(-c4ccsc4)cc3c2)=NN1	325 to 333
Nc1nnc2ccc(N3CCCCC3)nn12	245 to 246
COc1nc(C(F)(F)F)cc(=O)n1-c1cc(OCCON=C(C)C)c(Cl)cc1F	136 to 138
CC(=NOCCO)c1ccc(-c2ccc3c(c2)OCO3)cc1	132 to 134
COc1ccc(CSC2=NC(c3cccc([N+](=O)[O-])c3)C(C(=O)O)=C(C)N2)cc1 (stereo not drawn)	90
COc1ccc2c(c1O)NC(O)C1CCCN1C2=O (stereo not drawn)	152 to 155
Cc1c(OCc2ccc(F)cc2)cnn(C(C)(C)C)c1=O	65 to 66.5
O=C1CCSc2cc(Br)ccc21	55 to 57
CCC1CCc2[nH]cc3c(=O)n(-c4ccc(Cl)cc4)nc-3c2C1 (stereo not drawn)	318 to 320
Cc1cc2c(cc1C1=NNC(=O)CC1)NC(=O)C(C)O2 (stereo not drawn)	252 to 254

The remaining lines, values ahead:

melting point [°C]	Structure (SMILES)
205 to 208	CN(C)Cc1ccc2cc(NC(=O)c3ccc(-c4ccc(F)cc4)cc3)ccc2n1
135 to 136	CCOC(=O)c1coc2ccc(-c3nnc(C)o3)cc12
91 to 92	CC(C)(C)OC(=O)Nc1cc(Cl)cc(C(F)(F)F)c1
145 to 146	CC(C)Sc1cc(O)c(N)c(C#N)c1
163 to 165	O=C(NC1CCCc2ccccc21)c1ccc2n1Cc1ccccc1N(C(=O)CSc1ccc(Br)cc1)C2 (stereo not drawn)
113 to 115	C=C1CCC2C3CC(=O)C4=CC(=O)CCC4(C)C3CCC12C (stereo not drawn)
133 to 136	O=C1CCc2ccc(O)cc2O1
142 to 143	CCOc1nn(Cc2ccc(OCCc3nc(-c4ccccc4)oc3C)cc2)cc1CCC(=O)O
258 to 260	CC(C)(C)c1cc2c(n1-c1ccc(O)c(C(=O)O)c1)CCc1ccccc1-2
155 to 156	CC1=C(C)CC(C(=O)Nc2ccccc2)C(C(=O)O)C1 (stereo not drawn)
92 to 94	CSC(=O)c1c(C(F)F)nc(C(F)(F)F)c(C(=O)SC)c1NC(C)C
98 to 100	CCCCc1nc(Cl)c(COc2ccccn2)n1Cc1ccc(-c2ccccc2-c2nnn[nH]2)cc1
220 to 221	CCC(C#N)c1ccc(Cl)c2nc3n(c12)CCCN3c1ccc(Cl)cc1Cl (stereo not drawn)
205 to 208	Nc1nc(N)c2c(ccc3c2ccn3Cc2ccc(OC(F)(F)F)cc2)n1
224 to 226	O=C1CN(c2cccc(Cl)c2)NC(=O)N1
181 to 182	N=C(Nc1ccc(CCNC(=O)C(F)(F)F)cc1)c1cccs1
311 to 312	COc1cc2cc3c(=O)nc[nH]c3nc2cc1OC
67 to 71	Cc1c(CBr)cccc1C(F)(F)C(F)(F)c1ccccc1
78 to 80	C#Cc1cnc2ccc(OC(SC)C(=O)NC(C)(C#N)CO)cc2c1 (stereo not drawn)
82	COc1cc(C(=O)CBr)ccc1OC(C)=O
144 to 145	CCS(=O)(=O)NC1CCCOc2c(C)cc(Cl)cc21 (stereo not drawn)

melting point [°C]	Structure (SMILES)
233 to 234	Nc1nc2c(nnn2COC(CO)CO)c(=O)[nH]1
137 to 140	C[C@]1(CN2CCC(NC(=O)Nc3ccc(C(F)(F)F)cc3)CC2)Cn2cc([N+](=O)[O-])nc2O1
43 to 45	O=C(OCCCl)C(O)c1ccccc1 (stereo not drawn)
83 to 86	O=C1C(Cc2ccncc2)c2ccccc2N1N1CCCCC1 (stereo not drawn)
136 to 139	CCn1cc(C(=O)NCc2ccc(Cl)cc2)c(=O)c2cc(CCCCO)sc21
108	CC(=O)CN(c1ccc(Cl)cc1)S(C)(=O)=O
200 to 201	O=C(CCl)c1ccc2c(c1)Cc1cc(C(=O)CCl)ccc1O2
283 to 286	O=C(O)C1Cc2c(c(Br)cc3c(=O)c4ccccc4oc23)O1 (stereo not drawn)
75 to 77	O=C(Nc1ccc(OCCN2CCOCC2)c2ccccc12)c1cc(F)cc(OC2CCOCC2)c1
> 280	O=c1[nH]c2cc(Cl)ccc2c(=O)c2sccc12
143 to 148	COc1cc(C=O)ccc1OCCCC(=O)O
218 to 219	O=C(C1CCN(c2ccncn2)CC1)N1CCN(S(=O)(=O)c2ccc3cc(Cl)ccc3c2)CC1
160 to 161	COc1cccc(C(=O)NCC(=O)N2c3ccccc3N(Cc3ccccc3)C(=O)[C@H]3CCC[C@H]32)c1 (relative stereo)
114	NC(=O)CC1CN(Cc2ccccc2)CCN1Cc1ccccc1 (stereo not drawn)
191 to 193	CC(C)ON=Cc1cc(-n2c(=O)cc(C(F)(F)F)[nH]c2=O)ccc1Cl
231 to 233	CS(=O)(=O)c1ccc(-c2cnn(-c3ccc(F)cc3)c(=O)c2C2CCCCC2)cc1
154 to 156	O=C1CC[C@]2(C[C@H]3CC[C@@H]2C3)C(=O)N1 (racemic)
120	Cc1nc(=O)n(COc2ccccc2)c(C)c1Br
45 to 46	CCOC(=O)NCCOc1ccc(Oc2cccc(Cl)c2)cc1
130 to 132	Cc1onc(C(C)(O)c2ccccc2)c1NC(=O)CCl (stereo not drawn)
190 to 192	CC1(C(=O)O)CCc2cc(O)ccc2O1 (stereo not drawn)

— a melting point compilation (Tetko et al.; mined from patent text by program, amines drawn as free bases though some values may be those of a salt)
